Ends that are not written are not given here.
What follows are substances tested on cRBCs (assay: Haemolytic activity, chicken erythrocytes). Conditions: 1 h at 37° C.
Format: cell-based

Q: Which “Toxicity Haemolysis (cRBCs)” value does the source give for “RFGRFLRKIRRFRPKVTITIQGSARF-NH2 [CMAP26-NH2, reference compound]” here?
A: The value was “+/− (>25% dead cells)”.

Q: RFGRFLRKIRRFRPKVTITIQ [CMAP1-21] was tested. Which “Toxicity Haemolysis (cRBCs)” value did it give?
A: Its value is “− (<25% dead cells)”.

Q: How did the “Toxicity Haemolysis (cRBCs)” value turn out when “RFGRFLRKIRRFRPK [CMAP(1-15), RFGRFLRKIRRFRPK]” was run?
A: The value was “− (<25% dead cells)”.

Each substance was assayed on hRBCs (assay: not given). Conditions: human erythrocytes, 1 h at 37° C.

Q: How did the “Toxicity Haemolysis (hRBCs)” value turn out when “RLGRFLRKIRRFRPK [CMAP(1-15) (F2→L), RLGRFLRKIRRFRPK]” was run?
A: Its value is “− (<25% dead cells)”.

Q: With “RWGRWLRKIRRWRPK [CMAP(1-15) (3xF→W), RWGRWLRKIRRWRPK]” as the substance, how does the “Toxicity Haemolysis (hRBCs)” value read?
A: The value was “− (<25% dead cells)”.

Q: For RFGRFLRKIRR [CMAP(l-ll), RFGRFLRKIRR], which “Toxicity Haemolysis (hRBCs)” value is on record?
A: Its value is “+/− (>25% dead cells)”.

Q: “RFGRWLRKIRRFRPK [CMAP(1-15) (F5→W), RFGRWLRKIRRFRPK]” was tested. Which “Toxicity Haemolysis (hRBCs)” value did it give?
A: Its value is “−− (<5% dead cells)”.

Q: With “RLGRLLRKIRRLRPK [CMAP(1-15) (3xF→L), RLGRLLRKIRRLRPK]” as the substance, how does the “Toxicity Haemolysis (hRBCs)” value read?
A: Its value is “− (<25% dead cells)”.

Q: How did the “Toxicity Haemolysis (hRBCs)” value turn out when RFGRFLRKIR [CMAP(l-l0), RFGRFLRKIR] was run?
A: The value was “−− (<5% dead cells)”.

Q: For “GRFLRKIRRFRPK [CMAP(3-15), GRFLRKIRRFRPK]”, which “Toxicity Haemolysis (hRBCs)” value is on record?
A: Its value is “−− (<5% dead cells)”.

Q: For “RFGRLLRKIRRFRPK [CMAP(1-15) (F5→L), RFGRLLRKIRRFRPK]”, which “Toxicity Haemolysis (hRBCs)” value is on record?
A: Its value is “− (<25% dead cells)”.

Q: With “RFGRFLRKIRRFR [CMAP(1-13), RFGRFLRKIRRFR]” as the substance, how does the “Toxicity Haemolysis (hRBCs)” value read?
A: Its value is “−− (<5% dead cells)”.

Q: Which “Toxicity Haemolysis (hRBCs)” value does the source give for “RFGRFLRKIRRFRPKVTITIQGSARFG [CMAP27, reference compound]” here?
A: The value was “− (<25% dead cells)”.

Q: RFLRKIRRFRPK [CMAP(4-15), RFLRKIRRFRPK] was tested. Which “Toxicity Haemolysis (hRBCs)” value did it give?
A: The value was “+/− (>25% dead cells)”.

Q: For RFGRFLRKIRRF [CMAP(1-12), RFGRFLRKIRRF], which “Toxicity Haemolysis (hRBCs)” value is on record?
A: Its value is “−− (<5% dead cells)”.

Q: How did the “Toxicity Haemolysis (hRBCs)” value turn out when “RWGRFLRKIRRFRPK [CMAP(1-15) (F2→W), RWGRFLRKIRRFRPK]” was run?
A: The value was “−− (<5% dead cells)”.

Q: With FLRKIRRFRPK [CMAP(5-15), FLRKIRRFRPK] as the substance, how does the “Toxicity Haemolysis (hRBCs)” value read?
A: The value was “− (<25% dead cells)”.

Q: For “RFGRFLRKIRRFRPK [CMAP(1-15), RFGRFLRKIRRFRPK]”, which “Toxicity Haemolysis (hRBCs)” value is on record?
A: The value was “−− (<5% dead cells)”.

Q: Which “Toxicity Haemolysis (hRBCs)” value does the source give for RFGRFLRKIRRFRPKVTITIQGSARF [CMAP26] here?
A: The value was “++ (>75% dead cells)”.

Q: Which “Toxicity Haemolysis (hRBCs)” value does the source give for “FGRFLRKIRRFRPK [CMAP(2-15), FGRFLRKIRRFRPK]” here?
A: The value was “−− (<5% dead cells)”.

From patent US9006174B2 (priority 2009, dated 2015)
